The values below come from paper PMC13211308, “Chemical genetics reveals Leishmania KKT2 and CRK9 kinase activity is required for cell cycle progression” (PLOS Pathogens, 2026).

This test concerns the target T1, rCLK1 (recombinant CLK1, KKT10) (Leishmania mexicana, UniProt E9AMP2).
T1 construct: gene LMXM_09_0400
T1 sequence (E9AMP2 1-422): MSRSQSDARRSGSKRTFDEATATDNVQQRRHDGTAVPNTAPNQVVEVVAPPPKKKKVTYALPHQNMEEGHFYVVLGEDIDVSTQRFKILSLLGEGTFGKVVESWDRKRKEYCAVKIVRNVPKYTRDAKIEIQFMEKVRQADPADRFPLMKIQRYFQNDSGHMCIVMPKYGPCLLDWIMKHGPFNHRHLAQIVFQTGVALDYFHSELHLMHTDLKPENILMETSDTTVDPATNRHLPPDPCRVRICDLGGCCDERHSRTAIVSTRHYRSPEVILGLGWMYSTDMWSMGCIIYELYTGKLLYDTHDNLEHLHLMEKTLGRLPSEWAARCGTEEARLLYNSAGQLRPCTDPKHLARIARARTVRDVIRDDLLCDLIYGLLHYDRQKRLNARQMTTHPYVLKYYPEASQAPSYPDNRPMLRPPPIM
The note with it: 1 mM ATP, 5 mM MgCl2, 1 mM MnCl2, pH 7.5, 2 h, 37 °C.

Regarding `Nc1ncnc2c1ncn2[C@@H]1O[C@H](COP(=O)(O)OP(=O)(O)OP(=O)(O)O)[C@@H](O)[C@H]1O` [ATP], the “autophosphorylation by intact mass spectrometry” value is listed as “Following incubation with ATP, rCLK1 exhibited three distinct phosphorylation states”.
